Reference: patent publication US20250346602A1, “LACTAM SUBSTITUTED IMIDAZOPYRIDAZINE IL-17A MODULATORS AND USES THEREOF” (DICE ALPHA, INC., priority 2022, published 2025)

target: T1, IL-17A/A (Homo sapiens, UniProt Q16552); assay: IL-17A/A HEK-Blue cell assay; type: cell-based; conditions: HEK-Blue IL-17A reporter cell line (HEK 293), IL-17A/A stimulation, 20 hours incubation, SEAP read at A630
T1 construct: purchased Genscript Z03228
T1 sequence (Q16552 24-155): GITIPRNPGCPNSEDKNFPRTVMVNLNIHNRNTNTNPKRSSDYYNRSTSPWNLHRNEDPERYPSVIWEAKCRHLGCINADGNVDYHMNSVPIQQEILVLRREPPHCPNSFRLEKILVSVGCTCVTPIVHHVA
Method in brief: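 HEK293 reporter cells expressing IL-17RA, IL-17RC and Act1 were given titrated compound (top final 10, 1 or 0.3 uM; 0.1% DMSO) right before IL-17A/A and incubated 20 hours. NFκB-driven SEAP in the media was read at A630 with Quanti-Blue, and IC50 came from a 4-parameter nonlinear fit.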

Row | IC50 [nM] | SMILES
1 | 100 to 1000 | CC1(c2nocc2C(=O)N[C@H](c2cn3nc(CC4C[C@@H](C(F)(F)F)CNC4=O)ccc3n2)C2CCC(F)(F)CC2)CC1 (stereo partly drawn) [Compound 123, N-((1S)-(4,4-difluorocyclohexyl)(6-(((5R)-2-oxo-5-(trifluoromethyl)piperidin-3-yl)methyl)imidazo[1,2-b]pyridazin-2-yl)methyl)-3-(1-methylcyclopropyl)isoxazole-4-carboxamide]
2 | 100 to 1000 | O=C(N[C@H](c1cn2nc(CC3C[C@@H](C(F)(F)F)CNC3=O)ccc2n1)C1CCC(F)(F)CC1)c1conc1C1CC(F)(F)C1 (stereo partly drawn) [Compound 124, 3-(3,3-difluorocyclobutyl)-N-((1S)-(4,4-difluorocyclohexyl)(6-(((5R)-2-oxo-5-(trifluoromethyl)piperidin-3-yl)methyl)imidazo[1,2-b]pyridazin-2-yl)methyl)isoxazole-4-carboxamide]
3 | 100 to 1000 | O=C(N[C@H](c1cn2nc(CC3C[C@@H](C(F)(F)F)CNC3=O)ccc2n1)C1CCC(F)(F)CC1)c1conc1C(F)(F)C1CC1 (stereo partly drawn) [Compound 125, 3-(cyclopropyldifluoromethyl)-N-((1S)-(4,4-difluorocyclohexyl)(6-(((5R)-2-oxo-5-(trifluoromethyl)piperidin-3-yl)methyl)imidazo[1,2-b]pyridazin-2-yl)methyl)isoxazole-4-carboxamide]
4 | 100 to 1000 | CCCn1nccc1C(=O)N[C@H](c1cn2nc(CC3C[C@@H](C(F)(F)F)CNC3=O)ccc2n1)C1CCC(F)(F)CC1 (stereo partly drawn) [Compound 128, N-((1S)-(4,4-difluorocyclohexyl)(6-(((5R)-2-oxo-5-(trifluoromethyl)piperidin-3-yl)methyl)imidazo[1,2-b]pyridazin-2-yl)methyl)-1-propyl-1H-pyrazole-5-carboxamide]
5 | > 1000 | Cn1nc(C(F)F)cc1C(=O)N[C@H](c1cn2nc(CC3C[C@@H](C(F)(F)F)CNC3=O)ccc2n1)C1CCC(F)(F)CC1 (stereo partly drawn) [Compound 129, N-((1S)-(4,4-difluorocyclohexyl)(6-(((5R)-2-oxo-5-(trifluoromethyl)piperidin-3-yl)methyl)imidazo[1,2-b]pyridazin-2-yl)methyl)-3-(difluoromethyl)-1-methyl-1H-pyrazole-5-carboxamide]
6 | > 1000 | O=C(N[C@H](c1cn2nc(CC3C[C@@H](C(F)(F)F)CNC3=O)ccc2n1)C1CCC(F)(F)CC1)c1cnsn1 (stereo partly drawn) [Compound 132, N-((1S)-(4,4-difluorocyclohexyl)(6-(((5R)-2-oxo-5-(trifluoromethyl)piperidin-3-yl)methyl)imidazo[1,2-b]pyridazin-2-yl)methyl)-1,2,5-thiadiazole-3-carboxamide]
7 | 100 to 1000 | Cn1c(C#N)ccc1C(=O)N[C@H](c1cn2nc(CC3C[C@@H](C(F)(F)F)CNC3=O)ccc2n1)C1CCC(F)(F)CC1 (stereo partly drawn) [Compound 133, 5-cyano-N-((1S)-(4,4-difluorocyclohexyl)(6-(((5R)-2-oxo-5-(trifluoromethyl)piperidin-3-yl)methyl)imidazo[1,2-b]pyridazin-2-yl)methyl)-1-methyl-1H-pyrrole-2-carboxamide]
8 | 100 to 1000 | N#Cc1cc(C(=O)N[C@H](c2cn3nc(CC4C[C@@H](C(F)(F)F)CNC4=O)ccc3n2)C2CCC(F)(F)CC2)cs1 (stereo partly drawn) [Compound 134, 5-cyano-N-((1S)-(4,4-difluorocyclohexyl)(6-(((5R)-2-oxo-5-(trifluoromethyl)piperidin-3-yl)methyl)imidazo[1,2-b]pyridazin-2-yl)methyl)thiophene-3-carboxamide]
9 | > 1000 | Cc1n[nH]cc1C(=O)N[C@H](c1cn2nc(CC3C[C@@H](C(F)(F)F)CNC3=O)ccc2n1)C1CCC(F)(F)CC1 (stereo partly drawn) [Compound 135, N-((1S)-(4,4-difluorocyclohexyl)(6-(((5R)-2-oxo-5-(trifluoromethyl)piperidin-3-yl)methyl)imidazo[1,2-b]pyridazin-2-yl)methyl)-3-methyl-1H-pyrazole-4-carboxamide]
10 | 100 to 1000 | O=C(N[C@H](c1cn2nc(CC3C[C@@H](C(F)(F)F)CNC3=O)ccc2n1)C1CCC(F)(F)CC1)c1conc1C1CC1 (stereo partly drawn) [Compound 136, 3-cyclopropyl-N-((1S)-(4,4-difluorocyclohexyl)(6-(((5R)-2-oxo-5-(trifluoromethyl)piperidin-3-yl)methyl)imidazo[1,2-b]pyridazin-2-yl)methyl)isoxazole-4-carboxamide]
11 | 100 to 1000 | O=C(N[C@H](c1cn2nc(CC3C[C@@H](C(F)(F)F)CNC3=O)ccc2n1)C1CCC(F)(F)CC1)c1ccnn1C1CC1 (stereo partly drawn) [Compound 137, 1-cyclopropyl-N-((1S)-(4,4-difluorocyclohexyl)(6-(((5R)-2-oxo-5-(trifluoromethyl)piperidin-3-yl)methyl)imidazo[1,2-b]pyridazin-2-yl)methyl)-1H-pyrazole-5-carboxamide]
12 | 100 to 1000 | O=C(N[C@H](c1cn2nc(CC3C[C@@H](C(F)(F)F)CNC3=O)ccc2n1)C1CCC(F)(F)CC1)c1conc1C1(C(F)(F)F)CC1 (stereo partly drawn) [Compound 138, N-((1S)-(4,4-difluorocyclohexyl)(6-(((5R)-2-oxo-5-(trifluoromethyl)piperidin-3-yl)methyl)imidazo[1,2-b]pyridazin-2-yl)methyl)-3-(1-(trifluoromethyl)cyclopropyl)isoxazole-4-carboxamide]
13 | > 1000 | O=C1NC[C@H](C(F)(F)F)CC1Cc1ccc2nc([C@@H](NC(=O)C3(F)CC3)C3CCC(F)(F)CC3)cn2n1 (stereo partly drawn) [Compound 139, N-((1S)-(4,4-difluorocyclohexyl)(6-(((5R)-2-oxo-5-(trifluoromethyl)piperidin-3-yl)methyl)imidazo[1,2-b]pyridazin-2-yl)methyl)-1-fluorocyclopropane-1-carboxamide]
14 | 100 to 1000 | O=C(N[C@H](c1cn2nc(CC3C[C@@H](C(F)(F)F)CNC3=O)ccc2n1)C1CCC(F)(F)CC1)c1conc1C12CC(F)(C1)C2 (stereo partly drawn) [Compound 140, N-((1S)-(4,4-difluorocyclohexyl)(6-(((5R)-2-oxo-5-(trifluoromethyl)piperidin-3-yl)methyl)imidazo[1,2-b]pyridazin-2-yl)methyl)-3-(3-fluorobicyclo[1.1.1]pentan-1-yl)isoxazole-4-carboxamide]
15 | < 100 | CCc1nonc1C(=O)N[C@H](c1cn2nc(CC3C[C@@H](C(F)(F)F)CNC3=O)ccc2n1)[C@H]1CC[C@H](C)CC1 (stereo partly drawn) [Compound 141, 4-Ethyl-N-((1S)-((1R.4S)-4-methylcyclohexyl)(6-(((5R)-2-oxo-5-(trifluoromethyl)piperidin-3-yl)methyl)imidazo[1,2-b]pyridazin-2-yl)methyl)-1,2,5-oxadiazole-3-carboxamide]
16 | < 100 | CCn1nccc1C(=O)N[C@H](c1cn2nc(CC3C[C@@H](C(F)(F)F)CNC3=O)ccc2n1)[C@H]1CCCC(F)(F)C1 (stereo partly drawn) [Compound 142, N-((1S)—((S)-3,3-difluorocyclohexyl)(6-(((5R)-2-oxo-5-(trifluoromethyl)piperidin-3-yl)methyl)imidazo[1,2-b]pyridazin-2-yl)methyl)-1-ethyl-1H-pyrazole-5-carboxamide]
17 | < 100 | CCn1nccc1C(=O)N[C@H](c1cn2nc(CC3C[C@@H](C(F)(F)F)CNC3=O)ccc2n1)[C@@H]1CCCC(F)(F)C1 (stereo partly drawn) [Compound 143, N-((1S)—((R)-3,3-difluorocyclohexyl)(6-(((5R)-2-oxo-5-(trifluoromethyl)piperidin-3-yl)methyl)imidazo[1,2-b]pyridazin-2-yl)methyl)-1-ethyl-1H-pyrazole-5-carboxamide]
